Results published in PubChem BioAssay AID1963979 (Molecular Pharmacology Branch, DTP, NCI, 2024).

System: 361931-004-R-J1-PDC multicell spheroid viability
Assay: Anticancer human tumor 361931-004-R-J1-PDC patient-derived colon adenocarcinoma cell line growth inhibition [PI3K]
Details: for IC50: curve of first compound; for viability, T/C: stronger effect = lower value
Source text: Combinatorial screen of targeted agents with the PI3K inhibitors inavolisib, alpelisib, duvelisib, and copanlisib in multi-cell type tumor spheroids
A high-throughput screen of multi-cell type tumor spheroids was designed to identify active combinations of targeted small molecules and PI3K pathway inhibitors. Complex spheroids include a stromal component modeled by human endothelial cells (HUVEC) and fibroblasts modeled by human mesenchymal stem cells (MSCs). The concentration ranges selected for each drug and investigational agent were based upon clinically achievable concentrations if the clinical Cmax of the agent was known.
Compounds. The drugs and investigational agents: inavolisib (NSC800729), alpelisib (NSC765974), duvelisib (NSC772469), copanlisib (NSC816437), ipatasertib (NSC767898), afuresertib (NSC778305), talazoparib (NSC767125), sapanisertib (NSC764658), selumetinib (NSC741078), tovorafenib (DAY101, NSC766906), vemurafenib (NSC761431), ravoxertinib (NSC781343), sotorasib (NSC818433), MRTX1133 (NSC 836407), abemaciclib (NSC 768073), palbociclib (NSC758247), venetoclax (NSC 766270), SY5609 (NSC837396), enzalutamide (NSC755605), and darolutamide (NSC825331), were obtained from the National Cancer Institute (NCI) Developmental Therapeutics Program Chemical Repository. The FDA-approved anticancer drug set is available from the NCI Developmental Therapeutics Program. […] The stock solutions were prepared in dimethyl sulfoxide (DMSO, Sigma-Aldrich, St. Louis, MO, cat. D2650) at 800-fold the tested concentration and stored at -70 degrees C prior to their use. All drugs and investigational agents were tested over a range starting from a high concentration at or near the clinical Cmax and decreasing in half-log increments. If the clinical Cmax for an agent had not been determined, the highest concentration tested was 10 microM.
Cell Culture. All cells were maintained in an incubator at 37 degrees C and 5% CO2 with 95% humidity. The PDC lines were cultured according to standard operating procedures established by the NCI PDMR (https://pdmr.cancer.gov/sops/default.htm). All PDCs were thawed and cultured in Matrigel-coated flasks prepared with a working solution of 1X Ham's F-12 nutrient mix, without supplementation (Invitrogen, Waltham, MA, cat. 11765054), 100 U/mL penicillin-streptomycin (Invitrogen, cat. 15140122), and 2.5% Matrigel (Corning Inc., Corning, NY, cat. 354248) for the first three passages. The 354836-022-R-J1-PDC, 475296-252-R-J1-PDC, and 997726-040-R-J2-PDC lines were cultured in 6A media, which includes advanced DMEM/F-12 (Thermo Fisher Scientific, cat. 12634028), 10 mM HEPES (Thermo Fisher Scientific, cat. 15630080), 1X GlutaMAX supplement (Thermo Fisher Scientific, cat. 35050061), 0.1 mg/mL primocin (InvivoGen, San Diego, CA, cat. ant-pm-2), 10% defined fetal bovine serum, heat inactivated (HyClone Laboratories Inc., Logan, UT, cat. SH30070.03HI), 50% L-WRN conditioned media (ATCC, cat. CRL-3276), 1.25 mM N-Acetyl-L-cysteine (Sigma-Aldrich, cat. A9165), 10 mM nicotinamide (Sigma-Aldrich, cat. N0636), 1X B-27 supplement (Thermo Fisher Scientific, cat. 17504044), 1X N-2 supplement (Thermo Fisher Scientific, cat. 17502048), and 10 microM Y-27632 dihydrochloride (Tocris Bioscience, Bristol, United Kingdom, cat. 1254). The 624824-186-R-J2-PDC line was cultured in 6C/Colon 1B media, which includes all 6A media components plus 50 ng/mL human EGF recombinant protein (Thermo Fisher Scientific, cat. PHG0311). […]

[1] = second compound 0.0316 µM, first compound 0.0316 µM
[2] = second compound 0.0316 µM, first compound 0.1 µM
[3] = second compound 0.0316 µM, first compound 0.316 µM
[4] = second compound 0.0316 µM, first compound 1 µM
[5] = second compound 0.0316 µM, first compound 3.16 µM
[6] = second compound 0.0316 µM, first compound 10 µM
[7] = second compound 0.1 µM, first compound 0.0316 µM
[8] = second compound 0.1 µM, first compound 0.1 µM
[9] = second compound 0.1 µM, first compound 0.316 µM
[10] = second compound 0.1 µM, first compound 1 µM
[11] = second compound 0.1 µM, first compound 3.16 µM
[12] = second compound 0.1 µM, first compound 10 µM
[13] = second compound 0.316 µM, first compound 0.0316 µM
[14] = second compound 0.316 µM, first compound 0.1 µM
[15] = second compound 0.316 µM, first compound 0.316 µM
[16] = second compound 0.316 µM, first compound 1 µM
[17] = second compound 0.316 µM, first compound 3.16 µM
[18] = second compound 0.316 µM, first compound 10 µM
[19] = second compound 1 µM, first compound 0.0316 µM
[20] = second compound 1 µM, first compound 0.1 µM
[21] = second compound 1 µM, first compound 0.316 µM
[22] = second compound 1 µM, first compound 1 µM
[23] = second compound 1 µM, first compound 3.16 µM
[24] = second compound 1 µM, first compound 10 µM
[25] = second compound 3.16 µM, first compound 0.0316 µM
[26] = second compound 3.16 µM, first compound 0.1 µM
[27] = second compound 3.16 µM, first compound 0.316 µM
[28] = second compound 3.16 µM, first compound 1 µM
[29] = second compound 3.16 µM, first compound 3.16 µM
[30] = second compound 3.16 µM, first compound 10 µM
[31] = second compound 10 µM, first compound 0.0316 µM
[32] = second compound 10 µM, first compound 0.1 µM
[33] = second compound 10 µM, first compound 0.316 µM
[34] = second compound 10 µM, first compound 1 µM
[35] = second compound 10 µM, first compound 3.16 µM
[36] = second compound 10 µM, first compound 10 µM
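Also: spheroids exposed to agents for seven days before readout.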

For `Cn1ncc(Cl)c1-c1cc(C(=O)NC(CN)Cc2cccc(F)c2)sc1Cl` (stereo unspecified) + CC(Nc1ncnc2nc[nH]c12)c1cc2cccc(Cl)c2c(=O)n1-c1ccccc1, the IC50 (second compound 0.0316 µM) was 2.94 µM, the IC50 (second compound 0.1 µM) was 3.34 µM and the IC50 (second compound 0.316 µM) was 2.17 µM. The IC50 (second compound 1 µM) was 2.55 µM, the IC50 (second compound 3.16 µM) was 2.21 µM and the IC50 (second compound 10 µM) was 2.49 µM. It also gave a viability, T/C [1] of 95.2%, a viability, T/C [2] of 98.3% and a viability, T/C [3] of 88.7%. The viability, T/C [4] was 70.6%, the viability, T/C [5] was 49.7% and the viability, T/C [6] was 32.1%. For the same molecule, the viability, T/C [7] was 103%, the viability, T/C [8] was 104% and the viability, T/C [9] was 92.7%. For the same molecule, the viability, T/C [10] was 77.5%, the viability, T/C [11] was 50.8% and the viability, T/C [12] was 30.9%. The viability, T/C [13] was 106%, the viability, T/C [14] was 108% and the viability, T/C [15] was 90.8%. The viability, T/C [16] was 60.4%, the viability, T/C [17] was 48.5% and the viability, T/C [18] was 27.1%. For the same molecule, the viability, T/C [19] was 111%, the viability, T/C [20] was 101% and the viability, T/C [21] was 90.1%. The viability, T/C [22] was 61.8%, the viability, T/C [23] was 49.9% and the viability, T/C [24] was 31%. The viability, T/C [25] was 105%, the viability, T/C [26] was 105% and the viability, T/C [27] was 89.4%. It also gave a viability, T/C [28] of 65.4%, a viability, T/C [29] of 44.4% and a viability, T/C [30] of 24.5%. The viability, T/C [31] was 97.2%, the viability, T/C [32] was 95.8% and the viability, T/C [33] was 89.5%. It also gave a viability, T/C [34] of 75.4%, a viability, T/C [35] of 43% and a viability, T/C [36] of 25%.
Work on `CC1(C)CCC(CN2CCN(c3ccc(C(=O)NS(=O)(=O)c4ccc(NCC5CCOCC5)c([N+](=O)[O-])c4)c(Oc4cnc5[nH]ccc5c4)c3)CC2)=C(c2ccc(Cl)cc2)C1` + CC(Nc1ncnc2nc[nH]c12)c1cc2cccc(Cl)c2c(=O)n1-c1ccccc1 yielded an IC50 (second compound 0.0316 µM) of 5.36 µM, an IC50 (second compound 0.1 µM) of 5.02 µM and an IC50 (second compound 0.316 µM) of 5.04 µM. The IC50 (second compound 1 µM) was 5.15 µM, the IC50 (second compound 3.16 µM) was 5.25 µM and the IC50 (second compound 10 µM) was 4.96 µM. For the same molecule, the viability, T/C [1] was 105%, the viability, T/C [2] was 98.3% and the viability, T/C [3] was 104%. For the same molecule, the viability, T/C [4] was 93.4%, the viability, T/C [5] was 89.4% and the viability, T/C [6] was 3.37%. For the same molecule, the viability, T/C [7] was 110%, the viability, T/C [8] was 95.2% and the viability, T/C [9] was 97.7%. For the same molecule, the viability, T/C [10] was 102%, the viability, T/C [11] was 81.2% and the viability, T/C [12] was 3.38%. The viability, T/C [13] was 108%, the viability, T/C [14] was 97.2% and the viability, T/C [15] was 106%. For the same molecule, the viability, T/C [16] was 106%, the viability, T/C [17] was 81.7% and the viability, T/C [18] was 3.3%. For the same molecule, the viability, T/C [19] was 103%, the viability, T/C [20] was 99.2% and the viability, T/C [21] was 106%. The viability, T/C [22] was 102%, the viability, T/C [23] was 84% and the viability, T/C [24] was 3.62%. For the same molecule, the viability, T/C [25] was 102%, the viability, T/C [26] was 109% and the viability, T/C [27] was 96%. For the same molecule, the viability, T/C [28] was 96.5%, the viability, T/C [29] was 86.8% and the viability, T/C [30] was 3.29%. For the same molecule, the viability, T/C [31] was 109%, the viability, T/C [32] was 99.6% and the viability, T/C [33] was 107%. The viability, T/C [34] was 107%, the viability, T/C [35] was 80.1% and the viability, T/C [36] was 3.09%.
Work on `CC1(C)CCC(Nc2ncc(C(F)(F)F)c(-c3c[nH]c4c(P(C)(C)=O)c(C#N)ccc34)n2)CN1` (stereo unspecified) + Cc1nc(NC(=O)N2CCCC2C(N)=O)sc1-c1ccnc(C(C)(C)C(F)(F)F)c1 yielded an IC50 (second compound 0.0316 µM) of 4.5 µM, an IC50 (second compound 0.1 µM) of 3.7 µM and an IC50 (second compound 0.316 µM) of 4.24 µM. It also gave an IC50 (second compound 1 µM) of 4.32 µM, an IC50 (second compound 3.16 µM) of 2.72 µM and an IC50 (second compound 10 µM) of less than 0.0316 µM. For the same molecule, the viability, T/C [1] was 97.1%, the viability, T/C [2] was 82.6% and the viability, T/C [3] was 79.9%. It also gave a viability, T/C [4] of 79.9%, a viability, T/C [5] of 71.3% and a viability, T/C [6] of 5.89%. For the same molecule, the viability, T/C [7] was 101%, the viability, T/C [8] was 92.8% and the viability, T/C [9] was 84.9%. For the same molecule, the viability, T/C [10] was 78.5%, the viability, T/C [11] was 59.7% and the viability, T/C [12] was 7.04%. The viability, T/C [13] was 89.8%, the viability, T/C [14] was 84.4% and the viability, T/C [15] was 74.8%. For the same molecule, the viability, T/C [16] was 70.6%, the viability, T/C [17] was 69.1% and the viability, T/C [18] was 5.97%. The viability, T/C [19] was 76.5%, the viability, T/C [20] was 68.6% and the viability, T/C [21] was 65.2%. For the same molecule, the viability, T/C [22] was 80.4%, the viability, T/C [23] was 65.8% and the viability, T/C [24] was 6.15%. It also gave a viability, T/C [25] of 73.5%, a viability, T/C [26] of 62.5% and a viability, T/C [27] of 59.5%. It also gave a viability, T/C [28] of 57.5%, a viability, T/C [29] of 51.4% and a viability, T/C [30] of 4.43%. It also gave a viability, T/C [31] of 49.1%, a viability, T/C [32] of 51.9% and a viability, T/C [33] of 44.9%. For the same molecule, the viability, T/C [34] was 44.1%, the viability, T/C [35] was 39.5% and the viability, T/C [36] was 1.98%.
